Assay results: patent US9480676B2, “Use of PDE4 inhibitors and combinations thereof for the treatment of cystic fibrosis” (Celgene Corporation, priority 2014, dated 2016)
Where “and” joins values, the source holds several entries; their conditions need not be identical. Equal entries are not always repeated.

Test system: PDE4
Assay: Inhibition of PDE4 (enzyme purified from U937 human monocytic cells)
Assay type: biochemical
Details: 1 μM cAMP plus 10 nM [3H]-cAMP, 45 min at 30° C.
Method: Phosphodiesterase 4 enzyme was purified from U937 human monocytic cells by gel filtration chromatography, and phosphodiesterase reactions were carried out as previously described. See, e.g., Muller et al., Bioorg. Med. Chem. Lett., 1998, 8(19): 2669-2674. Briefly, reactions were carried out in 96-well deep-well plates in 50 mM Tris HCl pH 7.5, 5 mM MgCl2, 1 μM cyclic adenosine monophosphate (cAMP), plus 10 nM [^3H]-cAMP for 45 min at 30° C. The reactions were terminated by boiling, treated with 1 mg/ml snake venom, and separated using AG-1X8 ion exchange resin (BioRad). Reactions consumed less than 15% of available substrate. […] Compound B inhibited PDE4 with an IC50 of 100 nM.

Row | Structure (SMILES) | IC50
1 | CCOc1cc([C@@H](CS(C)(=O)=O)N2C(=O)c3cccc(NC(C)=O)c3C2=O)ccc1OC [Compound A1, (S)—N-(2-(1-(3-ethoxy-4-methoxyphenyl)-2-(methylsulfonyl)ethyl)-1,3-dioxoisoindolin-4-yl)acetamide] | 0.0735 µM and ~0.074 µM
2 | CCOc1cc([C@@H](CS(C)(=O)=O)N2Cc3cccc(NC(=O)C4CC4)c3C2=O)ccc1OC [Compound B, (S)—N-(2-(1-(3-ethoxy-4-methoxyphenyl)-2-(methylsulfonyl)ethyl)-3-oxoisoindolin-4-yl)cyclopropanecarboxamide] | 0.1 µM and ~0.1 µM
